Assay results: publication PMC11672551, “Cyclic Ruthenium-Peptide Prodrugs Penetrate the Blood–Brain Barrier and Attack Glioblastoma upon Light Activation in Orthotopic Zebrafish Tumor Models” (ACS Central Science, 2024)
Like-named read-outs stand apart in the source and are kept apart here.

Tested on: U87MG cells
Test: 2D cytotoxicity assay, SRB end point, dark vs green light
Format: cell-based, human
Details: normoxia (21% O2); for EC50: SRB at 96 h
Procedure: To test the in vitro phototoxicity of the three complexes toward 2D monolayer U87MG cells, a cell viability assay was undertaken as follows: the cells were seeded at t = 0, treated at t = 24 h, irradiated with green light (520 nm, 13.1 J cm^–2) at t = 48 h without refreshing the medium (drug-to-light interval = 24 h), further incubated in the dark for 48 h, and counted at t = 96 h with a sulforhodamine B (SRB) cell quantification end point assay.[45] Half-maximal effective concentrations (EC50 in μM), compared to untreated control, and photoindex (PI) values, defined as EC50,dark/ EC50,light, were calculated to characterize the toxicity and light activation of each Ru-peptide conjugate. […] However, a much stronger discrepancy appeared in the 2D toxicity data in hypoxic conditions (Table 2, Figure S22b). The phototherapeutic properties of Ru-p(HH) in the green light group were the poorest, leading to a PI of only 1.3. […] Ru-p(MH) stood somewhere between these values with a PI of 1.9 under hypoxia. […] The loss of activity of Ru-p(HH) under hypoxia is consistent with the hypothesis of a PDT pathway, while Ru-p(MM) keeping appreciable phototoxicity under hypoxia better fits the hypothesis of a PACT cell-killing mechanism.
U87MG cells (6000) were seeded in 96-well plates (Sarstedt, 83.3924), and each well contained 100 μL of Opti-MEM (Gibco complete medium 11058-021, supplemented with 2.5% v/v fetal calf serum (FCS), 0.2% v/v penicillin/streptomycin (P/S), and 1% v/v glutamine). They were then placed either in a normoxic (21% O2) or hypoxic (1.0% O2) incubator; 24 h later, different concentrations of Ru-p(HH), Ru-p(MH), or Ru-p(MM) dissolved in Opti-MEM (100 μL) were added to the wells in triplicate. For each complex, one dark and one light plate were involved. Each plate was further incubated in the dark for 24 h (DLI). After that, one plate was irradiated with green light (520 nm) for 20 min at 37 °C for normoxia (dose = 13.1 J cm^–2) or 30 min for hypoxia (dose = 13.0 J cm^–2), while the other plate was kept in the dark. The cells were further incubated for another 2 days in normoxic or hypoxic conditions, respectively. Finally, 100 μL of cold trichloroacetic acid (10% w/v) was added to each well to fix the cells, and all plates were then transferred to a 4 °C refrigerator for 48 h before an SRB cell quantification end point assay was performed.[45] All experiments were conducted in biologically independent triplicate.
Hypoxic cell models in vitro: all cells were incubated and passaged in a dark hypoxic incubator (1% O2) for at least 2 weeks before all hypoxia studies. Adding chemicals to the cells had to be performed in air; however, the cell-growing medium was kept in the hypoxia incubator for at least 2 days before the addition to hypoxic cells, and all hypoxic light irradiations were performed inside the hypoxic incubator set at 1.0% O2.

[Ru(Ph2phen)2(bpy)]Cl2
PI, photoindex EC50,dark/EC50,light: 74.4
EC50 (520 nm, 10.9 mW cm–2, 13.1 J cm–2, 20 min, DLI 24 h, n = 3, read-out: EC50, green light): 0.18 µM
EC50 (light dose 0, 24 h treatment, no wash, n = 3, read-out: EC50, dark): 13.4 µM
